≈ marks a conversion by molar mass, not a printed value. Read-outs that look alike come from different tables or passages of the source.
Columns and labels:
[1] = tested on: S. aureus ATCC 29213 (MSSA); experiment: MIC, CLSI broth microdilution, S. aureus ATCC 29213; type: cell-based, Staphylococcus aureus; conditions: for In vitro AB activity (MIC): Table 2.1, S. aureus ATCC 29213
Description: (§1) MICs were evaluated following the CLSI microdilution method in BBL™ Mueller-Hinton II broth (Wikler et al., Clinical Laboratory Standards Institute Document M7-A7, 29 (2009)). Briefly, two-fold serial dilutions of compound were prepared in triplicate in 96-well plates and inoculated with 5×10^5 cfu/mL of the bacterial suspension. Plates were incubated at 37° C. for 16-20 hours.

S. aureus NRS128 = experiment: MIC, CLSI broth microdilution, S. aureus NRS128; type: cell-based, Staphylococcus aureus; conditions: Table 2.1, S. aureus NRS128
Description: as §1

S. aureus NRS70 = experiment: MIC, broth microdilution, S. aureus NRS70; type: cell-based, Staphylococcus aureus; conditions: for MIC: Staphylococcus aureus; for In vitro AB activity (MIC): Table 2.1, S. aureus NRS70
Description: as §1

S. aureus NRS123 = experiment: MIC, broth microdilution, S. aureus NRS123; type: cell-based; conditions: Staphylococcus aureus
Description: as §1

S. aureus NRS100 = experiment: MIC, CLSI broth microdilution, S. aureus NRS100; type: cell-based, Staphylococcus aureus; conditions: for MIC: Staphylococcus aureus; for In vitro AB activity (MIC): Table 2.1, S. aureus NRS100
Description: as §1

S. aureus NRS119 = experiment: MIC, CLSI broth microdilution, S. aureus NRS119; type: cell-based, Staphylococcus aureus; conditions: for MIC: Staphylococcus aureus; for In vitro AB activity (MIC): Table 2.1, S. aureus NRS119
Description: as §1

S. aureus NRS120 = experiment: MIC, CLSI broth microdilution, S. aureus NRS120; type: cell-based, Staphylococcus aureus; conditions: for MIC: Staphylococcus aureus; for In vitro AB activity (MIC): Table 2.1, S. aureus NRS120
Description: as §1

S. aureus VRS1 = experiment: MIC, CLSI broth microdilution, S. aureus VRS1; type: cell-based, Staphylococcus aureus; conditions: for MIC: Staphylococcus aureus; for In vitro AB activity (MIC): Table 2.1, S. aureus VRS1
Description: as §1

S. aureus VRS2 = experiment: MIC, CLSI broth microdilution, S. aureus VRS2; type: cell-based, Staphylococcus aureus; conditions: for MIC: Staphylococcus aureus; for In vitro AB activity (MIC): Table 2.1, S. aureus VRS2
Description: as §1

[2] = tested on: S. epidermidis ATCC 35547; experiment: MIC, CLSI broth microdilution, S. epidermidis ATCC 35547; type: cell-based; conditions: for MIC: Staphylococcus epidermidis, ATCC35547; for In vitro AB activity (MIC): Table 2.1, S. epidermidis ATCC 35547
Description: as §1

[3] = tested on: S. haemolyticus ATCC 29970; experiment: MIC, CLSI broth microdilution, S. haemolyticus ATCC 29970; type: cell-based; conditions: for MIC: Staphylococcus haemolyticus, ATCC29970; for In vitro AB activity (MIC): Table 2.1, S. haemolyticus ATCC 29970
Description: as §1

MRSA ATCC 27660 = experiment: Mouse peritonitis model of MRSA infection; type: in vivo, mice; conditions: 10 mg/kg iv at 30 min and 4.5 hr after infection, n = 6, 48 h
Description: We evaluated several compounds in in vivo mouse infection models, as well as in pharmacokinetic (PK) studies in mice (Table 1). The in vivo efficacy was determined using the rapid mouse peritonitis model of infection, in which the end point is death or survival in 48 hours. We initially dosed the compounds intravenously (iv) at a single dose level. If the compound has good in vivo efficacy after iv administration, we then evaluated efficacy at five dose levels. We also investigated in vivo efficacy after oral (po) administration.
Groups (n=6/group) of mice were infected with MRSA (0.5 mL of ATCC 27660 at a final concentration of 5×10^7 CFU/mL in 5% porcine mucin) intraperitoneally (ip). Following infection, mice were given iv doses by tail vein injection of compound 2, vancomycin (5 mg/kg, positive control), or vehicle at 30 min and 4.5 h after infection. The number of surviving mice was monitored for 48 h. The negative control (vehicle) typically results in the death of all mice. Quinazolinone 2 was dissolved in saline, sterile-filtered, and administered at doses of 2.5, 5, 7.5, 10, 20, and 30 mg/kg. The ED50 value was calculated using GraphPad prism 5.

Pharmacokinetics in mice = conditions: Table 1, ICR female mice, single dose iv
Description: We conducted first fast PK studies (n=2 mice per time point, 5 time points) dosing the compounds iv, followed by full PK studies for selected compounds (n=3 mice per time point, 10-12 time points per route of administration, iv and po).
A single dose of compound 2 was administered to mice (n=3 per time point) by tail vein injection or by oral gavage at 10 mg/kg. Blood was collected by cardiac puncture in heparinized syringes at 2, 5, 20, and 40 min and at 1, 2, 3, 4, 8, 18, and 24 h after iv dosing and at 0.5, 1, 2, 3, 4, 6, 9, 24, and 30 h after po dosing. Blood was centrifuged to obtain plasma. A 50-μL aliquot of plasma was mixed with 100 μL of acetonitrile containing internal standard (5 μM final concentration), followed by centrifugation at 20,000 g for 15 min. The supernatant was analyzed by reverse-phase UPLC. PK parameters were calculated as described in the Plasma protein binding and Pharmacokinetics sections below (see also Gooyit et al. J. Med. Chem. 54, 6676-6690 (2011)).
The area under the concentration-time curve up to the last quantifiable sampling time (AUC0-last) was calculated by the trapezoidal rule. AUC0-∞ was calculated as AUC0-last+(Clast/k), where Clast is the concentration at the last quantifiable sampling time and k is the elimination rate constant. The concentration at time=0 (C0) was estimated from the first sampling times by back-extrapolation using log-linear regression analysis. Half-lives (t1/2α and t1/2β) were estimated from the linear portion of the initial or terminal concentration-time data by linear regression, where the slope of the line was the rate constant k and t1/2α=ln 2/k. Volume of distribution (Vd) was calculated as the dose divided by the initial concentration (C0). Clearance (CL) was calculated from the dose divided by AUC0-∞. Oral bioavailability (F) was calculated by dividing the AUCpo by the AUCiv, as equivalent iv and po doses were administered.

[4] = Table 2, S. aureus NRS70, read-out: MIC
[5] = Table 2, S. aureus NRS123, read-out: MIC
[6] = Table 2, S. aureus NRS100, read-out: MIC
[7] = Table 2, S. aureus NRS119, read-out: MIC
[8] = Table 2, S. aureus NRS120, read-out: MIC
[9] = Table 2, S. aureus VRS1, read-out: MIC
[10] = Table 2, S. aureus VRS2, read-out: MIC
[11] = Table 2, S. haemolyticus ATCC 29970, read-out: MIC

Row | SMILES | In vitro AB activity (MIC) [1] [µg/mL] | In vitro AB activity (MIC) (S. aureus NRS128) [µg/mL] | In vitro AB activity (MIC) (S. aureus NRS70) [µg/mL] | In vitro AB activity (MIC) (S. aureus NRS100) [µg/mL] | In vitro AB activity (MIC) (S. aureus NRS119) [µg/mL] | In vitro AB activity (MIC) (S. aureus NRS120) [µg/mL] | In vitro AB activity (MIC) (S. aureus VRS1) [µg/mL] | In vitro AB activity (MIC) (S. aureus VRS2) [µg/mL] | In vitro AB activity (MIC) [2] [µg/mL] | In vitro AB activity (MIC) [3] [µg/mL] | MIC (S. aureus NRS70; [4]) [µg/mL] | MIC (S. aureus NRS123; [5]) [µg/mL] | MIC (S. aureus NRS100; [6]) [µg/mL] | MIC (S. aureus NRS119; [7]) [µg/mL] | MIC (S. aureus NRS120; [8]) [µg/mL] | MIC (S. aureus VRS1; [9]) [µg/mL] | MIC (S. aureus VRS2; [10]) [µg/mL] | MIC [3, 11] [µg/mL] | also measured
1 | CN[C@H](CC(C)C)C(=O)N[C@H]1C(=O)N[C@@H](CC(N)=O)C(=O)N[C@H]2C(=O)N[C@H]3C(=O)N[C@H](C(=O)N[C@H](C(=O)O)c4cc(O)cc(O)c4-c4cc3ccc4O)[C@H](O)c3ccc(c(Cl)c3)Oc3cc2cc(c3O[C@@H]2O[C@H](CO)[C@@H](O)[C@H](O)[C@H]2O[C@H]2C[C@](C)(N)[C@H](O)[C@H](C)O2)Oc2ccc(cc2Cl)[C@H]1O [vancomycin] | 1 | 1 | 1 | 2 | 2 | 2 | 512 | 64 | 16 | 2 | – | – | – | – | – | – | – | – | MIC (S. aureus NRS70; NRS70): 1 µg/mL (≈ 0.69 µM); MIC (S. aureus NRS123; NRS123): 1 µg/mL (≈ 0.69 µM); MIC (S. aureus NRS100; NRS100): 2 µg/mL (≈ 1.38 µM); MIC (S. aureus NRS119; NRS119): 2 µg/mL (≈ 1.38 µM); MIC (S. aureus NRS120; NRS120): 2 µg/mL (≈ 1.38 µM); MIC (S. aureus VRS1; VRS1): > 256 µg/mL; MIC (S. aureus VRS2; VRS2): 64 µg/mL (≈ 44.2 µM); MIC [2]: 64 µg/mL (≈ 44.2 µM); MIC [3]: 2 µg/mL (≈ 1.38 µM)
2 | Cc1onc(-c2ccccc2)c1C(=O)N[C@@H]1C(=O)N2[C@@H]1SC(C)(C)[C@@H]2C(=O)O [oxacillin] | 0.25 | 0.5 | 32 | 512 | 512 | 512 | 512 | 256 | – | 0.25 | 32 (≈ 79.7 µM) | 32 (≈ 79.7 µM) | 512 (≈ 1280 µM) | 512 (≈ 1280 µM) | 512 (≈ 1280 µM) | 512 (≈ 1280 µM) | 256 (≈ 638 µM) | 0.25 (≈ 0.623 µM) | MIC (S. aureus NRS70; NRS70, Table 3, single agent, read-out: MIC NRS70): 64 µg/mL (≈ 159 µM); MIC (S. aureus NRS123; NRS123, Table 3, single agent, read-out: MIC NRS123): 32 µg/mL (≈ 79.7 µM)
3 | CC(=O)Nc1cccc(-n2c(/C=C/c3ccc(F)cc3)nc3ccccc3c2=O)c1 [Compound 5] | – | – | – | – | – | – | – | – | – | – | – | – | – | – | – | – | – | – | MIC (w/ BSA) ([1]; S. aureus ATCC 29213, in the presence of bovine serum albumin): 8 µg/mL; MIC ([1]; S. aureus strain ATCC 29213 (MSSA)): 1 µg/mL (≈ 2.5 µM); In Vivo Efficacy (survived/total mice) (MRSA ATCC 27660): 2/6 @ 10 mg/kg; AUC (iv) (Pharmacokinetics in mice): AUC = 284 μg.min/mL; CL (Pharmacokinetics in mice): CL = 88.2 mL/min/kg; Vd (Pharmacokinetics in mice): Vd = 55.0 mL
4 | CC(=O)NC[C@H]1CN(c2ccc(N3CCOCC3)c(F)c2)C(=O)O1 [linezolid] | 4 | 1 | 1 | 2 | 32 | 32 | 2 | 2 | 1 | 2 | 1 (≈ 2.96 µM) | 2 (≈ 5.93 µM) | 2 (≈ 5.93 µM) | 64 (≈ 190 µM) | 64 (≈ 190 µM) | 2 (≈ 5.93 µM) | 1 (≈ 2.96 µM) | 1 (≈ 2.96 µM) | MIC ([2]; Table 2, S. epidermidis ATCC 35547, read-out: MIC): 1 µg/mL (≈ 2.96 µM)
